The structures appear in SMILES notation.

Sequence of human GPR17 short isoform (Q13304 29-367): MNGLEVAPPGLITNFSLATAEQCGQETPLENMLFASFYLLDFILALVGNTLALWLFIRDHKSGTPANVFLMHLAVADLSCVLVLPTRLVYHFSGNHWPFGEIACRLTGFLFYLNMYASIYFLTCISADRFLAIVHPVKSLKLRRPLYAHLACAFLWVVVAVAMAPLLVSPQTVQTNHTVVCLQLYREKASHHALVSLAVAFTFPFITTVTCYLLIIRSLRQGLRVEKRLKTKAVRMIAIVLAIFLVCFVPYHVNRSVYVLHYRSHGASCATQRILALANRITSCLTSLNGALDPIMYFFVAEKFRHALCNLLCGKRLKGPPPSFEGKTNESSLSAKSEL

The target of the assay is human GPR17 short isoform (Homo sapiens (Human), UniProt Q13304). Description: GPR17 cAMP assay (hGPR17 cAMP, antagonist mode against EC80 of MDL29,951). The format is cell-based. As to conditions: CHO-K1 cells stably expressing human GPR17 short isoform; EC80 of agonist MDL29,951; forskolin 15 μM. In a few lines:
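cAMP was read by competitive TR-FRET after a 30 min room-temperature stimulation: antagonists plus EC80 MDL29,951 and 0.5 mM IBMX, followed 5 min later by 15 μM forskolin. Cells were CHO-K1 with stable human GPR17 short isoform in HBSS/HEPES/BSA, pH 7.4; percent activity versus reference antagonist fitted sigmoidally.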
In general terms: cAMP levels reflect the balance of adenylyl cyclase and phosphodiesterase activity.
Usually IC50 stands for the concentration needed to halve the response being measured. Low readings indicate greater potency, high ones weaker potency. Turning to `COc1nc(NS(=O)(=O)c2c[nH]c3c(OC4CC4)c(Cl)ccc23)ncc1CC(F)F` [Example 127, 6-chloro-7-(cyclopropoxy)-N-[5-(2,2-difluoroethyl)-4-methoxy-pyrimidin-2-yl]-1H-indole-3-sulfonamide], the IC50 is 30 nM.

Compound `COc1nc(NS(=O)(=O)c2c[nH]c3cc(Cl)ccc23)ncc1CC(F)CF` (centres unmarked) [Example 176, 6-chloro-N-[5-(2,3-difluoropropyl)-4-methoxy-pyrimidin-2-yl]-1H-indole-3-sulfonamide] returned an IC50 of 47 nM.

For `COc1nc(NS(=O)(=O)c2c[nH]c3cc(Cl)ccc23)nc(CC2CC2)c1Br` [Example 80, N-[5-bromo-4-(cyclopropylmethyl)-6-methoxy-pyrimidin-2-yl]-6-chloro-1H-indole-3-sulfonamide], the IC50 stood at 20800 nM.

As to `COc1nc(NS(=O)(=O)c2c[nH]c3cc(Cl)ccc23)nc(OC)c1Br` [Example 12, N-(5-bromo-4,6-dimethoxy-pyrimidin-2-yl)-6-chloro-1H-indole-3-sulfonamide], the IC50 was found to be 20 nM.

`COc1nc(NS(=O)(=O)c2c[nH]c3nc(Cl)ccc23)ncc1OCCF` [Example 10, 6-chloro-N-[5-(2-fluoroethoxy)-4-methoxy-pyrimidin-2-yl]-1H-pyrrolo[2,3-b]pyridine-3-sulfonamide] registered an IC50 of 96 nM. Compared with the last compound, the IC50 is about 4.8-fold higher.

`COc1nc(NS(=O)(=O)c2csc3cc(Cl)ccc23)ncc1OCCF` [Example 24, 6-chloro-n-[5-(2-fluoroethoxy)-4-methoxy-pyrimidin-2-yl]benzothiophene-3-sulfonamide]: the IC50 turned out to be 51 nM.

Regarding `COc1nc(NS(=O)(=O)c2c[nH]c3c(C#N)c(Cl)ccc23)nc(OC)c1OC(F)F` [Example 224, 6-chloro-7-cyano-N-[5-(difluoromethoxy)-4,6-dimethoxy-pyrimidin-2-yl]-1H-indole-3-sulfonamide], the IC50 was determined as 25 nM.

The compound `COc1nc(NS(=O)(=O)c2c[nH]c3c(Br)cccc23)ncc1CC(F)F` [Example 129, 7-bromo-N-[5-(2,2-difluoroethyl)-4-methoxy-pyrimidin-2-yl]-1H-indole-3-sulfonamide] yielded an IC50 of 961 nM. This IC50 is about 38-fold higher than that of the compound before.

For `COc1nc(NS(=O)(=O)c2c[nH]c3cc(Cl)ccc23)nc(OC)c1CCF` [Example 59, 6-chloro-N-[5-(2-fluoroethyl)-4,6-dimethoxy-pyrimidin-2-yl]-1H-indole-3-sulfonamide], the IC50 stood at 13 nM.

In turn, `COc1nc(NS(=O)(=O)c2c[nH]c3cc(Cl)ccc23)nc(C2CC2)c1CC(F)F` [Example 79, 6-chloro-N-[4-cyclopropyl-5-(2,2-difluoroethyl)-6-methoxy-pyrimidin-2-yl]-1H-indole-3-sulfonamide] registered an IC50 of 128 nM.

With `COc1nc(NS(=O)(=O)c2c[nH]c3cc(Cl)ccc23)nc(CC#N)c1Br` [Example 85, N-[5-bromo-4-(cyanomethyl)-6-methoxy-pyrimidin-2-yl]-6-chloro-1H-indole-3-sulfonamide], the IC50 was found to be 623 nM.

`COc1nc(NS(=O)(=O)c2c[nH]c3nc(Br)ccc23)ncc1CCC(F)F` [Example 201, 6-bromo-N-[5-(3,3-difluoropropyl)-4-methoxy-pyrimidin-2-yl]-1H-pyrrolo[2,3-b]pyridine-3-sulfonamide] came in with an IC50 of 30 nM.

In turn, `COc1nc(NS(=O)(=O)c2c[nH]c3cc(Cl)ccc23)ncc1OCCCF` [Example 174, 6-chloro-N-[5-(3-fluoropropoxy)-4-methoxy-pyrimidin-2-yl]-1H-indole-3-sulfonamide] came in with an IC50 of 484 nM.

Compound `COc1nc(NS(=O)(=O)c2c[nH]c3cc(Cl)ccc23)nc(OC(F)F)c1Br` [Example 18, N-[5-bromo-4-(difluoromethoxy)-6-methoxy-pyrimidin-2-yl]-6-chloro-1H-indole-3-sulfonamide] registered a half-inhibitory concentration (IC50) of 83 nM.

For the compound `COc1nc(NS(=O)(=O)c2c[nH]c3cc(Cl)ccc23)nc(OC)c1CC#N` [Example 67, 6-chloro-N-[5-(cyanomethyl)-4,6-dimethoxy-pyrimidin-2-yl]-1H-indole-3-sulfonamide], the 50% inhibitory concentration (IC50) came to 65 nM.

In turn, `COc1nc(NS(=O)(=O)c2c[nH]c3nc(C(F)F)ccc23)nc(OC)c1CC(F)CF` (centres unmarked) [Example 287, 6-(Difluoromethyl)-N-[5-(2,3-Difluoropropyl)-4,6-Dimethoxy-Pyrimidin-2-Yl]-1H-Pyrrolo[2,3-b]Pyridine-3-Sulfonamide] registered an IC50 of 114 nM.

Consider `COc1nc(NS(=O)(=O)c2c[nH]c3nc(Cl)ccc23)nc(OC)c1OC(F)(F)CF` [Example 171, 6-chloro-N-[4,6-dimethoxy-5-(1,1,2-trifluoroethoxy)pyrimidin-2-yl]-1H-pyrrolo[2,3-b]pyridine-3-sulfonamide], for which the IC50 stood at 89 nM.

`COc1nc(NS(=O)(=O)c2c[nH]c3cc(F)ccc23)nc(OC)c1CCC#N` [Example 259, N-[5-(2-cyanoethyl)-4,6-dimethoxy-pyrimidin-2-yl]-6-fluoro-1H-indole-3-sulfonamide] came in with an IC50 of 25 nM.

As to `COc1nc(NS(=O)(=O)c2csc3cc(Cl)ccc23)ncc1CCC(F)F` [Example 155, 6-chloro-N-[5-(3,3-difluoropropyl)-4-methoxy-pyrimidin-2-yl]benzothiophene-3-sulfonamide], the IC50 turned out to be 116 nM. This IC50 is about 4.6-fold higher than that of the compound before.

In turn, `COc1nc(NS(=O)(=O)c2c[nH]c3nc(C)ccc23)nc(OC)c1CC(F)F` [Example 132, N-[5-(2,2-difluoroethyl)-4,6-dimethoxy-pyrimidin-2-yl]-6-methyl-1H-pyrrolo[2,3-b]pyridine-3-sulfonamide] came in with an IC50 of 39 nM.

With `COc1nc(NS(=O)(=O)c2c[nH]c3nc(C(F)F)ccc23)nc(OC)c1OCC#N` [Example 99, N-[5-(cyanomethoxy)-4,6-dimethoxy-pyrimidin-2-yl]-6-(difluoromethyl)-1H-pyrrolo[2,3-b]pyridine-3-sulfonamide], the IC50 was 102 nM.

With `COc1nc(NS(=O)(=O)c2c[nH]c3cc(Cl)ccc23)nc(C2CC2)c1OCC(F)F` [Example 19, 6-chloro-N-[4-cyclopropyl-5-(2,2-difluoroethoxy)-6-methoxy-pyrimidin-2-yl]-1H-indole-3-sulfonamide], the concentration for half-maximal inhibition (IC50) came out at 49 nM.

The compound `COc1nc(NS(=O)(=O)c2c[nH]c3cc(C(F)F)ccc23)nc(OC)c1CC(F)F` [Example 236, N-[5-(2,2-difluoroethyl)-4,6-dimethoxy-pyrimidin-2-yl]-6-(difluoromethyl)-1H-indole-3-sulfonamide] yielded a concentration for half-maximal inhibition (IC50) of 14 nM. Against the preceding compound, the IC50 is about 3.5-fold lower.

`COc1nc(NS(=O)(=O)c2csc3nc(Cl)ccc23)nc(OC)c1OC(F)F` [Example 271, 6-chloro-N-[5-(difluoromethoxy)-4,6-dimethoxy-pyrimidin-2-yl]thieno[2,3-b]pyridine-3-Sulfonamide] showed an IC50 of 290 nM.

Compound `COCCc1c(OC)nc(NS(=O)(=O)c2c[nH]c3cc(Cl)ccc23)nc1OC` [Example 66, 6-chloro-N-[4,6-dimethoxy-5-(2-methoxyethyl)pyrimidin-2-yl]-1H-indole-3-sulfonamide] registered an IC50 of 19 nM.

Consider `COc1nc(NS(=O)(=O)c2c[nH]c3c(SC(F)F)c(Cl)ccc23)nc(OC)c1OCCF` [Example 106, 6-chloro-7-(difluoromethylthio)-N-[5-(2-fluoroethoxy)-4,6-dimethoxy-pyrimidin-2-yl]-1H-indole-3-sulfonamide], for which the IC50 was found to be 7 nM. Against the preceding compound, the IC50 is about 2.7-fold lower.

`COc1nc(NS(=O)(=O)c2c[nH]c3cc(Cl)ccc23)nc(OC)c1OC(F)F` [Example 52, 6-chloro-N-[5-(difluoromethoxy)-4,6-dimethoxy-pyrimidin-2-yl]-1H-indole-3-sulfonamide] displayed an IC50 of 32 nM.

`COc1nc(NS(=O)(=O)c2c[nH]c3cc(Br)ccc23)nc(OC)c1OCC#N` [Example 246, 6-bromo-N-[5-(cyanomethoxy)-4,6-dimethoxy-pyrimidin-2-yl]-1H-indole-3-sulfonamide] yielded a half-maximal inhibitory concentration (IC50) of 19 nM.

Take `CCOc1nc(NS(=O)(=O)c2c[nH]c3cc(Cl)ccc23)nc(OC)c1Br` [Example 13, N-(5-bromo-4-ethoxy-6-methoxy-pyrimidin-2-yl)-6-chloro-1H-indole-3-sulfonamide]: the half-inhibitory concentration (IC50) worked out at 236 nM. Against the preceding compound, the IC50 is about 12-fold higher.

The compound `COc1nc(NS(=O)(=O)c2c[nH]c3nc(C(F)F)ccc23)nc(OC)c1CC(F)F` [Example 194, N-[5-(2,2-difluoroethyl)-4,6-dimethoxy-pyrimidin-2-yl]-6-(difluoromethyl)-1H-pyrrolo[2,3-b]pyridine-3-sulfonamide] returned a half-maximal inhibitory concentration (IC50) of 25 nM. Compared with the last compound, the IC50 is about 9.4-fold lower.

Regarding `COc1nc(NS(=O)(=O)c2c[nH]c3c(F)c(Cl)ccc23)ncc1OC(F)F` [Example 126, 6-chloro-N-[5-(difluoromethoxy)-4-methoxy-pyrimidin-2-yl]-7-fluoro-1H-indole-3-sulfonamide], the IC50 is 82 nM.

As for `COc1nc(NS(=O)(=O)c2c[nH]c3cc(Cl)ccc23)nc(C2CCOCC2)c1Br` [Example 138, N-(5-bromo-4-methoxy-6-tetrahydropyran-4-yl-pyrimidin-2-yl)-6-chloro-1H-indole-3-sulfonamide], the IC50 is 20800 nM.

Regarding `COc1nc(NS(=O)(=O)c2c[nH]c3cc(C(F)F)ccc23)nc(OC)c1OCC#N` [Example 237, N-[5-(cyanomethoxy)-4,6-dimethoxy-pyrimidin-2-yl]-6-(difluoromethyl)-1H-indole-3-sulfonamide], the IC50 amounted to 34 nM.

On to `COc1nc(NS(=O)(=O)c2c[nH]c3nc(Br)ccc23)ncc1OC(F)(F)CF` [Example 231, 6-bromo-N-[4-methoxy-5-(1,1,2-trifluoroethoxy)pyrimidin-2-yl]-1H-pyrrolo[2,3-b]pyridine-3-sulfonamide], for which the IC50 is 21 nM.

With `COc1nc(NS(=O)(=O)c2c[nH]c3cc(C(F)F)ccc23)ncc1OC(F)(F)CF` [Example 100, 6-(difluoromethyl)-N-[4-methoxy-5-(1,1,2-trifluoroethoxy)pyrimidin-2-yl]-1H-indole-3-sulfonamide], the IC50 turned out to be 160 nM. Compared with the last compound, the IC50 is about 7.6-fold higher.

These data come from patent publication US20240025883A1, “PYRIMIDIN-2-YL SULFONAMIDE DERIVATIVES” (Hoffmann-La Roche Inc., priority 2021, published 2024).
